The values below come from paper PMC8612341, “Cyclic ^68Ga-Labeled Peptides for Specific Detection of Human Angiotensin-Converting Enzyme 2” (Journal of Nuclear Medicine, 2021).

For orientation: IC50 means the concentration that inhibits the measured activity by half. A higher IC50 goes with weaker potency in that assay.

Where a SMILES comes first, the peptide text is derived from it. Bridges are numbered along the chain shown (N, C = ends). The star is where a group is joined. NOTA = O=C(O)CN1CCN(CC(=O)O)CCN(CC(=O)*)CC1

The target in assay [1] is T1, ACE2 (Homo sapiens, UniProt Q9BYF1).
T1 construct: purchased AnaSpec AS-72086
The assay can be described thus: ACE2 inhibition assay (SensoLyte 390 ACE2 Activity Assay Kit, fluorimetric, AnaSpec). Type of assay: biochemical. Conditions: for IC50: nonlinear fit of 6-point dilution series, Fig. 2D. On the procedure:
Six DX600-derived peptides, named NOTA-PEP1 to NOTA-PEP6 (cyclic vs. noncyclic, with triglycine, aminocaproate, and polyethylene glycol linkers), were studied using a commercially available ACE2 inhibition assay according to the manufacturer’s instructions (SensoLyte 390 ACE2 Activity Assay Kit *Fluorimetric*, AS-72086; AnaSpec). Each peptide inhibitor was first tested at 4 concentrations. Initial velocities were determined relative to the inhibitor free reaction. Subsequently, IC50 values were derived from nonlinear fits of saturation curves of a 6-point dilution series of peptide inhibitors.

The target of assay [2] is T1, ACE2. Details: method as in earlier work. Conditions: vs. ACE and carboxypeptidase A; ref 30 (Huang et al.); cited from earlier work.
[3] abbreviates: fluorometric ACE2 inhibition assay (AnaSpec).

T1 sequence (Q9BYF1 18-805): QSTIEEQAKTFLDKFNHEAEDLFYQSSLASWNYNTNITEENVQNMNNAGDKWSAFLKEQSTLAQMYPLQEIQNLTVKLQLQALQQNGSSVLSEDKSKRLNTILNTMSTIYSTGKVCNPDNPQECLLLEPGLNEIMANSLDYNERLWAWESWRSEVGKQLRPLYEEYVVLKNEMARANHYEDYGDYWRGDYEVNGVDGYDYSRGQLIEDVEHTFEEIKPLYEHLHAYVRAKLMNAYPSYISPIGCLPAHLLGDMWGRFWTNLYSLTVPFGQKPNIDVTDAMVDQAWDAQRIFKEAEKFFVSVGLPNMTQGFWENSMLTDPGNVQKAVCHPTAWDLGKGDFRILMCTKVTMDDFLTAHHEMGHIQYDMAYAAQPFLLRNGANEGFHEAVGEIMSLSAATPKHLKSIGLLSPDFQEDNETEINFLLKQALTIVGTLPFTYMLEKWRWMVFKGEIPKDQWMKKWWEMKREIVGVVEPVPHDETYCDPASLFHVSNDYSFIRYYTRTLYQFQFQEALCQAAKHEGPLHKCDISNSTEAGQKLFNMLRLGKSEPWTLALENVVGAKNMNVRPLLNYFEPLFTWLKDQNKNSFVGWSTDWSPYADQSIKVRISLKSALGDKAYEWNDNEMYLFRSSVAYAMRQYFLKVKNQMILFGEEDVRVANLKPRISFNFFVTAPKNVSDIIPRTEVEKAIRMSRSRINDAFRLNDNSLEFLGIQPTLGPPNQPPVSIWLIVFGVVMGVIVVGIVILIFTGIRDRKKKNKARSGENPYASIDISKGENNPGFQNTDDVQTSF

As for `CC(C)C[C@@H]1NC(=O)[C@@H]2CCCN2C(=O)[C@H](CO)NC(=O)[C@@H](NC(=O)[C@H](Cc2c[nH]cn2)NC(=O)[C@H](CO)NC(=O)[C@H](Cc2ccc(O)cc2)NC(=O)[C@H](CC(=O)O)NC(=O)CNC(=O)CCCCCNC(=O)CN2CCN(CC(=O)O)CCN(CC(=O)O)CC2)CSSC[C@@H](C(=O)N[C@H](C(=O)N[C@@H](Cc2ccc(O)cc2)C(=O)N2CCC[C@H]2C(=O)N[C@@H](CC(=O)O)C(=O)N2CCC[C@H]2C(=O)N[C@@H](CCC(=O)O)C(=O)NCC(=O)NCC(=O)NCC(N)=O)[C@@H](C)O)NC(=O)[C@H](CCCCN)NC(=O)[C@H](Cc2c[nH]c3ccccc23)NC(=O)[C@H](Cc2c[nH]c3ccccc23)NC(=O)[C@@H]2CCCN2C(=O)[C@H](Cc2ccc(O)cc2)NC(=O)[C@H](Cc2ccc(O)cc2)NC(=O)[C@H](CCCNC(=N)N)NC1=O` [NOTA-PEP4], the IC50 in assay [1] (setting [3]) is 67.6 nM.

As to `CC(C)C[C@H](NC(=O)[C@@H]1CCCN1C(=O)[C@H](CO)NC(=O)[C@H](CS)NC(=O)[C@H](Cc1c[nH]cn1)NC(=O)[C@H](CO)NC(=O)[C@H](Cc1ccc(O)cc1)NC(=O)[C@H](CC(=O)O)NC(=O)CNC(=O)CNC(=O)CNC(=O)CNC(=O)CN1CCN(CC(=O)O)CCN(CC(=O)O)CC1)C(=O)N[C@@H](CCCNC(=N)N)C(=O)N[C@@H](Cc1ccc(O)cc1)C(=O)N[C@@H](Cc1ccc(O)cc1)C(=O)N1CCC[C@H]1C(=O)N[C@@H](Cc1c[nH]c2ccccc12)C(=O)N[C@@H](Cc1c[nH]c2ccccc12)C(=O)N[C@@H](CCCCN)C(=O)N[C@@H](CS)C(=O)N[C@H](C(=O)N[C@@H](Cc1ccc(O)cc1)C(=O)N1CCC[C@H]1C(=O)N[C@@H](CC(=O)O)C(=O)N1CCC[C@H]1C(=O)N[C@@H](CCC(=O)O)C(=O)NCC(=O)NCC(=O)NCC(N)=O)[C@@H](C)O` [NOTA-PEP1] ({NOTA}-GGGGDYSHCSPLRYYPWWKCTYPDPEGGG-NH2), the IC50 in assay [1] (setting [3]) is 2400 nM.

`CC(=O)NCC(=O)N[C@@H](CC(=O)O)C(=O)N[C@@H](Cc1ccc(O)cc1)C(=O)N[C@@H](CO)C(=O)N[C@@H](Cc1c[nH]cn1)C(=O)N[C@H]1CSSC[C@@H](C(=O)N[C@H](C(=O)N[C@@H](Cc2ccc(O)cc2)C(=O)N2CCC[C@H]2C(=O)N[C@@H](CC(=O)O)C(=O)N2CCC[C@H]2C(=O)N[C@@H](CCC(=O)O)C(=O)NCC(=O)NCC(=O)NCC(N)=O)[C@@H](C)O)NC(=O)[C@H](CCCCN)NC(=O)[C@H](Cc2c[nH]c3ccccc23)NC(=O)[C@H](Cc2c[nH]c3ccccc23)NC(=O)[C@@H]2CCCN2C(=O)[C@H](Cc2ccc(O)cc2)NC(=O)[C@H](Cc2ccc(O)cc2)NC(=O)[C@H](CCCNC(=N)N)NC(=O)[C@H](CC(C)C)NC(=O)[C@@H]2CCCN2C(=O)[C@H](CO)NC1=O` [DX600, reference compound]: the IC50 in assay [1] (setting [3]) was found to be 114 nM. Moreover, in assay [2], the “Specificity for ACE2” value was “specificity for ACE2 vs. ACE and carboxypeptidase A”.

On to `CC(C)C[C@@H]1NC(=O)[C@@H]2CCCN2C(=O)[C@H](CO)NC(=O)[C@@H](NC(=O)[C@H](Cc2c[nH]cn2)NC(=O)[C@H](CO)NC(=O)[C@H](Cc2ccc(O)cc2)NC(=O)[C@H](CC(=O)O)NC(=O)CNC(=O)CCOCCOCCNC(=O)CN2CCN(CC(=O)O)CCN(CC(=O)O)CC2)CSSC[C@@H](C(=O)N[C@H](C(=O)N[C@@H](Cc2ccc(O)cc2)C(=O)N2CCC[C@H]2C(=O)N[C@@H](CC(=O)O)C(=O)N2CCC[C@H]2C(=O)N[C@@H](CCC(=O)O)C(=O)NCC(=O)NCC(=O)NCC(N)=O)[C@@H](C)O)NC(=O)[C@H](CCCCN)NC(=O)[C@H](Cc2c[nH]c3ccccc23)NC(=O)[C@H](Cc2c[nH]c3ccccc23)NC(=O)[C@@H]2CCCN2C(=O)[C@H](Cc2ccc(O)cc2)NC(=O)[C@H](Cc2ccc(O)cc2)NC(=O)[C@H](CCCNC(=N)N)NC1=O` [NOTA-PEP6], for which the “Change of observed ACE2 IC50 on addition of tris(2-carboxyethyl)phosphine (TCEP)” value in assay [1] (TCEP reduces the disulfide bridge (producing linear NOTA-PEP5), Fig. 2E) is on record as “markedly increased”. Besides, the “ACE2 inhibition compared with parent DX600 peptide” value in assay [1] (fluorometric ACE2 inhibition assay (AnaSpec), Figs. 2C and 2D) is recorded as “nearly identical to DX600”.

For `CC(C)C[C@@H]1NC(=O)[C@@H]2CCCN2C(=O)[C@H](CO)NC(=O)[C@@H](NC(=O)[C@H](Cc2c[nH]cn2)NC(=O)[C@H](CO)NC(=O)[C@H](Cc2ccc(O)cc2)NC(=O)[C@H](CC(=O)O)NC(=O)CNC(=O)CNC(=O)CNC(=O)CNC(=O)CN2CCN(CC(=O)O)CCN(CC(=O)O)CC2)CSSC[C@@H](C(=O)N[C@H](C(=O)N[C@@H](Cc2ccc(O)cc2)C(=O)N2CCC[C@H]2C(=O)N[C@@H](CC(=O)O)C(=O)N2CCC[C@H]2C(=O)N[C@@H](CCC(=O)O)C(=O)NCC(=O)NCC(=O)NCC(N)=O)[C@@H](C)O)NC(=O)[C@H](CCCCN)NC(=O)[C@H](Cc2c[nH]c3ccccc23)NC(=O)[C@H](Cc2c[nH]c3ccccc23)NC(=O)[C@@H]2CCCN2C(=O)[C@H](Cc2ccc(O)cc2)NC(=O)[C@H](Cc2ccc(O)cc2)NC(=O)[C@H](CCCNC(=N)N)NC1=O` [NOTA-PEP2] ({NOTA}-GGGGDYSHCSPLRYYPWWKCTYPDPEGGG-NH2; disulfide 9-20), the IC50 in assay [1] (setting [3]) is 101 nM.
